Test results reported in patent US10849867B2, “Methods and compositions for treating conditions associated with an abnormal inflammatory response” (First Wave Bio, Inc., priority 2015, dated 2020).

How the values were obtained:
[1] = cited from earlier work
[2] = system: lamina propria T cell (CD3+); assay: Cell death in lamina propria T cell from active IBD, 7-AAD staining (FIG. 1); assay type: cell-based, human; conditions: 10 μM for 16 hours, LPMC from IBD subjects, versus DMSO
Method: Cell death in lamina propria T cell (CD3+) was determined by measuring 7-AAD staining by flow cytometry. FIG. 1. […] Cell death in lamina propria T cell (CD3+) was determined by measuring 7-AAD staining by flow cytometry.

TNBS-induced colitis = assay: Relapsing TNBS-induced colitis in mice, rectal niclosamide (Example 4); assay type: in vivo, C57BL/6J female mice; conditions: relative to vehicle control
Excerpt: Objective. […] Model. The TNBS-induced colitis is a commonly used experimental model for Inflammatory Bowel Disease (IBD). TNBS (trinitrobenzenesulfonic acid) is a chemical administered rectally in the form of an enema to mice or rats in combination with ethanol, which disrupts the mucous barrier, and induces colitis by […] proteins within the gut, causing them to become preferential targets for immune cells. The severity of TNBS-induced colitis depends largely on the dosage applied and the strain of animal used. In chronic, relapsing form of the model, animals are sensitized by escalating, intracolonic doses of TNBS. Disease is monitored in-life by weight loss. Histology of colon specimens is used to determine disease severity at study termination (Gastroenterology. 2003 December; 125(6). 1750-61; Inflamm Bowel Dis. 2006 October; 12(10):995-9.) Mouse strain and housing. C57BL/6J female mice (9-weeks old) are purchased by Jackson and are housed at a temperature ranging from 68 to 74° F. with a diurnal 12 hour light cycle in a specific pathogen-free facility in ventilated cages. Food and water is provided ad libitum. Animals are acclimated to local microbiota for 7 days before the beginning of the experiment. Cell isolation and culture procedures are as noted in Example 2. Conditioning to induce colitis. To perform the studies of relapsing hapten-induced colitis 4 escalating doses of TNBS in 50% ethanol are administered at weekly intervals to lightly anesthetized mice through a 3.5Fr catheter inserted into the rectum. The catheter tip is inserted 4 cm proximal to the anal verge, and 150 μL of fluid is slowly instilled into the colon, after which the mouse is held in a vertical position for 30 seconds per rectum at weekly intervals. […] For the clinical assessment of colitis, animal weight, diarrhea (0=absent; 1=present), rectal prolapse (0=absent; l=present) and presence of blood in the stool (0=absent; l=present) is recorded daily. […] For statistical comparisons, two-way Anova test with Bonferroni correction is calculated with […] software.

[3] = Pharmacokinetics following a single rectal administration to NZW rabbits (Example 11); assay type: in vivo, New Zealand White KBL Rabbit; conditions: Treatment B 7.5, NZW rabbits; for concentration at 2 h / concentration at 4 h / concentration at 8 h / concentration at 24 h: male, New Zealand White KBL, rabbit, plasma, other: rectal, 7.5 mg, Niclosamide Plasma Concentrations
Excerpt: Following dosing, blood samples and rectal mucosa was obtained at indicated time points.

LPMC T cells = assay: LPMC T cell death, 7-AAD flow cytometry (Example 3); assay type: cell-based, human
Method: Objective. […] Model. The human LPMC model as described in Example 2 was used. Cell isolation and culture. Cell isolation and culture procedures were as detailed in Example 2. Treatment with Niclosamide. […] […] […] After treatment cells were exposed to 1 μM 7AAD then incubated a further 60 minutes at 37° C. Live cells and dead cells were enumerated by flow cytometer using a FACS Verse cytometer set to excite and measure emitted fluorescence of 7-AAD at appropriate wavelengths. Detecting viable and dead cells. 7-AAD is excluded from live cells but free to enter dead cells where it undergoes a spectral shift after interacting with cellular DNA. […] Use of this reagent allows viable cells and dead cells to be simultaneously enumerated. In order to specifically distinguish T cells from other cells in LPMCs, anti-CD3 monoclonal antibody labeled with FITC (excitation at 494 nm with emission detected at 521 nm) will be used. This antibody specifically binds human CD3 antigen that is selectively expressed on T cells. Cell viability and death was determined specifically in T cells by measuring 7-AAD fluorescence in cells labeled by anti-CD3 FITC. Calculation of T cell death. The fluorescence intensity of 7-AAD detected at 647 nm was measured specifically T the cell population that was first defined as described in Example 2 by FITC-anti-CD3 antibody fluorescence. […] For statistical comparisons, 95% confidence intervals were computed and graphed with the mean values.

For `O=C(Nc1ccc([N+](=O)[O-])cc1Cl)c1cc(Cl)ccc1O` [Niclosamide, 5-chloro-N-(2-chloro-4-nitrophenyl)-2-hydroxybenzamide], the water solubility ([1]; at 20° C.) is listed as 5 to 8 µg/mL, the solubility in acetone [1] is listed as “soluble” and the “solubility in ether, ethanol and chloroform” value [1] is listed as “sparingly soluble”. For the same compound, the “cell death in lamina propria T cell (CD3+)” value [2] was “induces cell death”, the colitis clinical scores (TNBS-induced colitis; daily, 1-100 mg/kg) was “dose-related decrease” and the colitis histologic scores (TNBS-induced colitis; daily, 1-100 mg/kg) was “dose-related decrease”. For the same compound, the “doses that significantly reduce both clinical and histologic scores (p<0.05)” value (TNBS-induced colitis) was ≥ 3 mg/kg, the “Niclosamide Plasma Concentrations, Mean” value ([3]; 1 h) was 3.9275 ng/mL and the concentration at 2 h ([3]; Mean, 2 h) was 19.7 ng/mL. It also gave a concentration at 4 h ([3]; Mean, 4 h) of 12 ng/mL, a concentration at 8 h ([3]; Mean, 8 h) of 4.68 ng/mL and a concentration at 24 h ([3]; Mean, 24 h) of 1.07 ng/mL. The concentration at 2 h ([3]; Subject 666, 2 h) was 5.19 ng/mL, the concentration at 8 h ([3]; Subject 666, 8 h) was 4.73 ng/mL and the concentration at 2 h ([3]; Subject 667, 2 h) was 3.26 ng/mL. It also gave a concentration at 8 h ([3]; Subject 667, 8 h) of 4.63 ng/mL, a concentration at 24 h ([3]; Subject 667, 24 h) of 1.07 ng/mL and a concentration at 2 h ([3]; Subject 668, 2 h) of 50.7 ng/mL. The concentration at 4 h ([3]; Subject 668, 4 h) was 2.21 ng/mL, the “LPMC T cell death” value (LPMC T cells; 1-500 μM, 24 hours, 7-AAD in CD3+ cells) was “dose-related increase” and the “concentrations that fail to induce T cell death” value (LPMC T cells; LPMC T cells) was “below 5 μM”. For the same compound, the “concentrations of niclosamide that significantly increase T cell death (p<0.05)” value (LPMC T cells; relative to negative controls with vehicle alone) was ≥ 5 µM.
